Tests used:
AMARE = assay: greenhouse pre-emergence herbicidal test; type: in vivo, Amaranthus retroflexus; conditions: pre-emergence method, application rate 0.250 kg/ha, scale from 0 to 100
Source text: (§1) The seeds of the test plants were sown separately for each species. For the pre-emergence treatment, the active ingredients, which had been suspended or emulsified in water, were applied directly after sowing by means of finely distributing nozzles. The containers were irrigated gently to promote germination and growth and subsequently covered with transparent plastic hoods until the plants had rooted. This cover caused uniform germination of the test plants, unless this had been impaired by the active ingredients. Depending on the species, the plants were kept at 10-25° C. or 20-35° C., respectively. The test period extended over 2 to 4 weeks. During this time, the plants were tended, and their response to the individual treatments was evaluated. Evaluation was carried out using a scale from 0 to 100. 100 means no emergence of the plants, or complete destruction of at least the aerial moieties, and 0 means no damage, or normal course of growth. A moderate herbicidal activity is given at values of at least 60, a good herbicidal activity is given at values of at least 70, and a very good herbicidal activity is given at values of at least 85. The plants used in the greenhouse experiments were of the following species: [table]

APESV = assay: greenhouse pre-emergence herbicidal test; type: in vivo, Apera spica-venti; conditions: pre-emergence method, application rate 0.250 kg/ha, scale from 0 to 100
Source text: as §1

Q: For `CC(C)(F)c1nc(N)nc(Nc2c(F)cccc2OC2CCCC2)n1` [Example 1, N2-[2-(Cyclopentoxy)-6-Fluoro-Phenyl]-6-(1-Fluoro-1-Methyl-Ethyl)-1,3,5-Triazine-2,4-Diamine], which “herbicidal activity against AMARE” value (AMARE) is on record?
A: very good (a very good herbicidal activity is given at values of at least 85)

Q: And the “herbicidal activity against APESV” value (APESV)?
A: good (a good herbicidal activity is given at values of at least 70)
